From patent US4496735A, “Certain pyridyloxy-or-thio-phenyl propenoic acid derivatives” (Maruko Seiyaku Co., Ltd., priority 1982, dated 1985) come the findings set out here.

In general, LD50 refers to the dose expected to kill half of the subjects tested. Low readings indicate a more toxic substance, high ones a less toxic substance. The term IC50 denotes the concentration at which inhibition is half-maximal.

The nature of one data set: Acute Toxicity. The format is in vivo. The conditions noted are these: mouse, in vivo, ip; ddY male mice; i.p.; mortality one week after administration; Behrens-Karber method. As to the method: (§1) The test compound was administered intraperitoneally to ddY male mice weighing 22 to 24 g and LD50 was determined by the Behrens-Karber method [Arch. exp. Path. Pharmak., 177, 379 (1935)] from the mortality one week after administration.

Data set [1] deals with platelet aggregation (arachidonic acid), rabbit platelet-rich plasma. The experiment in a line: Inhibition of Platelet Aggregation induced by arachidonic acid. It counts as cell-based. The conditions noted are these: for IC50: Oryctolagus cuniculus, Platelet, rabbit PRP, arachidonic acid 100 ug/ml, 37° C.; for inhibitory activity on platelet aggregation induced by arachidonic acid (in words): conclusion in words. As to the method:
(§2) Rabbit platelet-rich plasma was pre-incubated at 37° C. for 1 minute and, after adding the test compound, arachidonic acid or collagen was added thereto at a concentration of 100 ug/ml or 10 ug/ml, respectively. The aggregation of platelets was recorded using an aggregometer and shown in Table 2 in terms of IC50 value.

Data set [2] has as its system platelet aggregation (collagen), rabbit platelet-rich plasma. The experiment in a line: Inhibition of Platelet Aggregation induced by collagen. The format is cell-based. Particulars: for IC50: Oryctolagus cuniculus, Platelet, rabbit PRP, collagen 10 ug/ml, 37° C.; for inhibitory activity on platelet aggregation induced by collagen (in words): conclusion in words. As to the method: as §2

The subject of data set [3] is Arachidonic Acid-Induced Sudden Death. In words: Effect on Arachidonic Acid-Induced Sudden Death in Rabbit. It counts as in vivo, male rabbits. The conditions noted are these: for % Protection / Ratio of Mortality/Total Number: 20 mg/kg i.p. 2 hours before 1.4 mg/kg sodium arachidonate (ear vein); for % Protection: 30 minutes; for Ratio of Mortality/Total Number: mortality at 30 minutes; for protection against the arachidonic acid-induced sudden death in rabbits (in words): conclusion in words. The text has this: The compounds of the present invention having the formula (I) and the pharmaceutically acceptable salts thereof thus obtained have a strong inhibitory activity on thromboxane A2 synthetase. A typical in vivo test method for evaluating compounds which may be useful as a so-called anti-thrombotic agent has been reported in literature and this method comprises determining the prevention of sudden death of rabbits caused by arachidonic acid, as reported in, for example, Agents and Actions, 7, 481 (1977); Pharmacology, 14, 522 (1976); Science, 183, 1085 (1974), etc.
More specifically, sodium arachidonate is administered intravenously to rabbits at a dose of about 1.4 mg/kg to cause a sudden death within a few minutes due to platelet aggregation and lung embolus.
According to the method of Silver et al [Science, 183, 1085 (1974)], 20 mg/kg of the test compound was administered intraperitoneally into male rabbits (8 or 10 rabbits per group), each weighing 2.2 to 2.8 kg, and 2 hours after the administration 1.4 mg/kg of sodium arachidonate was administered to the rabbit from an ear vein. The mortality of the rabbits was then calculated 30 minutes after the administration of sodium arachidonate.

For data set [4], the system named is thromboxane A2 synthesis (thromboxane A2 synthetase). In words: Inhibition of Thromboxane A2 Synthesis (collagen-stimulated rabbit platelet-rich plasma, thromboxane B2 by radioimmunoassay). The format is cell-based. Particulars: Oryctolagus cuniculus, 5 min, read-out: IC50 on Thromboxane A2 Synthesis. As to the method:
Rabbit platelet-rich plasma (PRP, 6×10^8 platelets/ml) and the test compound was pre-incubated at 37° C. for 5 minutes and, after adding collagen to the mixture at a concentration of 13 ug/ml, the resulting mixture was incubated at 37° C. for 5 minutes. Then, the reaction was terminated by rendering the mixture […] with hydrochloric acid and the amount of thromboxane B2 produced was quantitatively determined by the radioimmunoassay.

A further data set has as its system ddY male mice. The experiment in a line: Acute Toxicity. It counts as in vivo. The conditions noted are these: i.p., mortality one week after administration, Behrens-Karber method, 10080 min. As to the method: as §1
Setting [5] is: rabbit PRP, 6×10^8 platelets/ml, collagen 13 ug/ml, 37° C., 5 minutes.

Counter-ions that a name gives are not always drawn. Like-named read-outs stand apart in the source and are kept apart here. A value given as a limit tells only on which side of the number the result lay.

`CC(=Cc1ccc(Oc2cccnc2)cc1)C(=O)NC1CCCCC1.Cl` [Compound E, N-Cyclohexyl-2-methyl-3-[4-(3-pyridyloxy)phenyl]propenamide hydrochloride] returned a 50% lethal dose (LD50) at 168 h in “Acute Toxicity” of 210 mg/kg. Also, in data set [1], half-maximal inhibition (IC50) was put at 31 µM. The IC50 in data set [2] is 47 µM. Also, in data set [3], the “% Protection” value stood at 75%, the “Ratio of Mortality/Total Number” value is given as 2/8 and the “protection against the arachidonic acid-induced sudden death in rabbits (in words)” value is listed as “strong protection”. In addition, the IC50 in data set [4] (setting [5]) amounted to 5.9 µM.

For `CCCCCCCCCn1ccnc1` [Compound A, Nonylimidazole, reference compound], in the data set on ddY male mice, the 50% lethal dose (LD50) is listed as 59 mg/kg. Besides, in data set [3], the “% Protection” value is 50% and the “Ratio of Mortality/Total Number” value is 5/10.

In turn, `CC(=Cc1ccc(Oc2cccnc2)cc1)C(N)=O.Cl` [Compound G, 2-Methyl-3-[4-(3-pyridyloxy)phenyl]propenamide hydrochloride] returned a 50% lethal dose (LD50) at 168 h in “Acute Toxicity” of 310 mg/kg. The IC50 in data set [1] was 335 µM; in data set [2], 56 µM; in data set [4] (setting [5]) it was 0.56 µM.

As for `CC(=Cc1ccc(Oc2cccnc2)cc1)C(=O)O.Cl` [Compound D, 2-Methyl-3-[4-(3-pyridyloxy)phenyl]propenoic acid hydrochloride], the 50% lethal dose (LD50) at 168 h in the data set “Acute Toxicity” was found to be 350 mg/kg. Also, in data set [2], half-maximal inhibition (IC50) was put at 36 µM. For the same molecule, in data set [3], the “% Protection” value came out at 100%, the “Ratio of Mortality/Total Number” value was 0/10 and the “protection against the arachidonic acid-induced sudden death in rabbits (in words)” value is listed as “strong protection”. Also, the 50% inhibitory concentration (IC50) in data set [4] (setting [5]) came out at 1 µM.

With `CC(=Cc1ccc(Cc2cccnc2)cc1)C(=O)O.Cl` [Compound C, 2-Methyl-3-[4-(3-pyridylmethyl)phenyl]propenoic acid hydrochloride, reference compound], in the data set “Acute Toxicity”, the 50% lethal dose (LD50) at 168 h was 220 mg/kg. Besides, the values for the 50% inhibitory concentration (IC50) in data set [1], in data set [2] and in data set [4] (setting [5]) were more than 1000 µM, 420 µM and 0.22 µM, respectively. Also, the “inhibitory activity on platelet aggregation induced by arachidonic acid (in words)” value in data set [1] is recorded as “very weak inhibitory activity”. The “inhibitory activity on platelet aggregation induced by collagen (in words)” value in data set [2] is “very weak inhibitory activity”.

`CC(=Cc1ccc(Sc2ccncc2)cc1)C(=O)O` [Compound F, 2-Methyl-3-[4-(4-pyridylthio)phenyl]propenoic acid hydrochloride]: the IC50 in data set [2] came out at 22 µM; in data set [4] (setting [5]) it was 0.31 µM.

`Cl.O=C(O)c1ccc(OCCn2ccnc2)cc1` [Compound B, 4-(2-Imidazol-1-ylethoxy)benzoic acid hydrochloride, reference compound]: the results for the IC50 in data set [1], in data set [2] and in data set [4] were more than 1000 µM, 400 µM and 5.7 µM, respectively. For the same molecule, in data set [1], the “inhibitory activity on platelet aggregation induced by arachidonic acid (in words)” value is “very weak inhibitory activity”. The “inhibitory activity on platelet aggregation induced by collagen (in words)” value in data set [2] is recorded as “very weak inhibitory activity”.
